Test system: ES cells (SK-N-MC) in Col 1-HA scaffold
Test: Blebbistatin treatment of bioengineered tumor: cell morphology and exosome size (NTA)
Type: cell-based, human
Conditions: blebbistatin-treated vs untreated controls, 3D setting
Description: To seed 3D Collagen 1-HA scaffolds, single-cell suspension of SK-N-MC cells was adjusted to the cell concentration of 1×10^6 cells/mL in a 50 ml Falcon tube. A total of 15 scaffolds were added to 30 mL of cell suspension, and the Falcon was set onto a rotary platform for 3 hours at 37° C./5% CO2. Cell seeded scaffolds were then transferred to non-treated wells in 12-multiwell plates (Nunc) and cultured in 2 mL of medium at 37° C./5% CO2. Cell numbers and were determined by Quant-iT PicoGreen dsDNA Assay Kit (Life technologies) according to the manufacturer's instructions. Exosome isolation and size analysis: Cells cultured in monolayers, aggregates and 3D scaffolds were washed with PBS twice and cultured in EMEM supplemented with 10% (v/v) Exosome-depleted FBS (SBI) and 1% penicillin/streptomycin for 12 h. The supernatants were collected and exosomes were isolated from cell culture media using the total exosome isolation kit (Invitrogen), according to the manufacturer's protocol. Exosomes from plasma samples were also isolated using the total exosome isolation kit (Invitrogen). The size distributions of exosomes were determined by Nanoparticle Tracking Analysis (NTA) using the Nanosight machine. To probe a possible mechanism underlying the observed effects of the tumor environment on exosome size, we modified the tension forces within the cells.

## Cc1ccc2c(c1)C(=O)C1(O)CCN(c3ccccc3)C1=N2 (centres unmarked) [Blebbistatin]
  Cell morphology / cell aggregates: partial disassembly of cell aggregates
  Exosome size distribution: shift of the exosome size distribution curve to higher values
